Results reported in the NIST ThermoML archive (doi:10.1016/j.tca.2013.12.016).

Assay: mn = molality of the nth substance listed, in mol/kg
Conditions: 101 kPa, Liquid; for speed of sound: Linear variable-path acoustic interferometer; for mass density: Vibrating tube method

CCOC(C)=O [ethyl acetate] + CCO
Conditions | mass density, 298.15 K [kg/m3] | mass density, 303.15 K [kg/m3] | mass density, 308.15 K [kg/m3] | mass density, 313.15 K [kg/m3] | speed of sound, 298.15 K [m/s] | speed of sound, 303.15 K [m/s] | speed of sound, 308.15 K [m/s] | speed of sound, 313.15 K [m/s]
m2 = 0.0124 | 894.9 | 888.4 | 882.9 | 877.2 | 1152 | 1135 | 1116 | 1093
m2 = 0.0357 | 894.7 | 888.2 | 882.7 | 877 | 1151 | 1134 | 1115 | 1091
m2 = 0.0713 | 894.4 | 887.9 | 882.4 | 876.4 | 1150 | 1133 | 1114 | 1090
m2 = 0.1025 | 894.2 | 887.7 | 882.2 | 876.5 | 1149 | 1130 | 1110 | 1089
m2 = 0.2087 | 893.5 | 887 | 881.5 | 875.8 | 1147 | 1128 | 1098 | 1077
m2 = 0.3504 | 892.6 | 886.1 | 880.6 | 874.9 | 1143 | 1123 | 1092 | 1069
m2 = 0.5065 | 891.7 | 885.3 | 879.8 | 874 | 1140 | 1119 | 1091 | 1067
m2 = 0.6771 | 890.7 | 884.4 | 878.9 | 873.2 | 1139 | 1116 | 1086 | 1062
m2 = 0.9772 | 889.1 | 883 | 877.4 | 871.8 | 1136 | 1113 | 1083 | 1059
m2 = 1.701 | 885.5 | 879.4 | 874 | 868.3 | 1131 | 1110 | 1080 | 1056
m2 = 2.712 | 880.6 | 874.7 | 869.3 | 863.7 | 1128 | 1107 | 1074 | 1053
m2 = 3.001 | 879.4 | 873.5 | 868.1 | 862.5 | 1122 | 1101 | 1068 | 1044
